Where “and” joins values, the source holds several entries; their conditions need not be identical. Equal values may be shown once.
Legend:
[1] = tested on: Xenopus eggs; assay: Enucleation of Xenopus eggs with psoralen and long-wave UV light, then fertilization; format: cell-based; conditions: for Chromosome Number (Mean ± SD): embryos from eggs treated with psoralen + long-wave UV before fertilization, diploid control 36
[2] = tested on: HeLa cells; assay: Effect of psoralen+UV treatment on growth of HeLa cells
[3] = tested on: Xenopus sperm
Experimental: (§1) Sperm Enucleation. A small piece of fresh Xenopus testis was macerated with forceps, resuspended in 1×MMR containing 1-50 μM AMT, then filtered through a […] cell strainer (Falcon). The sperm suspension was spread onto a Petri dish then irradiated as described above and used immediately to fertilize fresh eggs. Mouse epididymal sperm were isolated in HTF medium (Quinn, 2000) and not filtered before irradiation.
Karyotype Analysis. Karyotype analysis was performed using a modified protocol (http:// followed “by faculty.virginia.edu/xtropicalis/KaryotypeXtropicalis.htm”). […] tailbud embryos were incubated in 0.1×MMR containing 10 μM nocodazole for 1-3 hours. The tailbud was bluntly dissected off with sharp needles, incubated in 60% acetic acid for 5 minutes, and squashed onto a Superfrost Plus microscope slide (V WR Scientific) under a coverslip and a lead brick. After 5 minutes, the slide was quick-frozen on a cake of dry ice, the coverslip was prized off with a razor blade, and the squashed tissue was stained with 0.1 μg/ml 4′,6-diamidino-2-phenylindole (DAPI). At least three high quality spreads were counted before assigning a karyotype.

[4] = tested on: Mouse eggs; conditions: cultured four days
Experimental: (§2) Eggs from super-ovulated mice were irradiated for 30 seconds with a handheld 4W UV lamp in the presence of 4-6 μM AMT, then parthenogenetically activated with strontium chloride and cultured in vitro for four days. […] In mouse embryos, however, checkpoints are active during the early cleavage divisions (Liu et al., 2000b; Takai et al., 2000).

[5] = tested on: Mouse sperm; conditions: AMT+UV-treated sperm
Experimental: as §1, §2

[6] = tested on: primary MEFs
Experimental: (§3) Feeder Cell Enucleation. […] Cells were irradiated from above for 30-60 seconds with a 4 W UVGL-25 Mineralite (UVP) using the long-wave setting, holding the lamp as close as possible to the brim of the culture dish with the lid removed. After irradiation cells were washed with PBS. H7/WA07 hESCs (National Stem Cell Bank) were plated on primary MEFs 24 hours later. These MEFs were between passages 2 and 5. For keratinocytes precursor cell culture, the MEFS were trypsinized immediately after treatment and plated with CIN612 cells.
Human embryonic stem cells (hESCs) require a feeder layer of mouse embryonic fibroblasts (MEFs) to grow in culture (Thomson et al., 1998). […] The ability of MEFs to support hESC growth declines with time (VIIIa-Diaz et al., 2009).

[7] = tested on: Mouse J2 3T3 fibroblasts; conditions: 5 μM AMT and UV light 2 minutes
Experimental: as §3
The human keratinocyte precursor cell line CIN612 is widely used in studies of human papillomavirus (HPV) (Ozbun, 2002). CIN612 cells harbor episomal copies of HPV31b, a subtype that causes cervical cancer. The cells are typically grown on a feeder layer of mouse fibroblasts. Mouse J2 3T3 fibroblasts were treated with 5 μM AMT and UV light for 2 minutes, then trypsinized and plated with CIN612 cells.

[8] = 5 μM MOP, long wave UV 1 minute, cultured three days
[9] = pigmented male sperm treated with AMT and UV, eggs from albino female

COc1c2occc2cc2ccc(=O)oc12 [MOP, 8-methoxypsoralen]
Chromosome Number (Mean ± SD) ([1]; karyotype analysis): 18.0 ± 0.0 | Cell viability [2, 8]: 80-100% | HeLa cell growth [2, 8]: effectively arrested HeLa cell growth | Chk1 phosphorylation, MOP without UV exposure ([2]; MOP without UV): little or no Chk1 phosphorylation | Growth of cells incubated in MOP without UV exposure ([2]; MOP without UV): grew normally | S345-phosphorylated Chk1 ([2]; MOP+UV-arrested cells, immunoblotting): high levels | Cell cycle distribution (flow cytometry) ([2]; MOP+UV-treated cells): arrested in S and G2/M phases of the cell cycle | Proliferation in culture ([2]; MOP+UV-treated, untreated doubling time close to 24 hours): did not proliferate

Cc1oc2c(C)c3oc(=O)cc(C)c3cc2c1CN [AMT, 4′-aminomethyl-4, 5′, 8-trimethylpsoralen]
Average efficiency of enucleation ([1]; 20 different clutches of eggs from different mothers): 87±11% | Embryo development, AMT-only treated eggs ([1]; AMT without UV): normal diploid embryos | DNA content of somatic cells versus cells from untreated eggs ([1]; AMT+UV-treated eggs, primary cultures from pools of 20 tadpoles, flow cytometry): exactly half | Rates of fertilization and development into haploid tadpoles ([1]; after psoralen+UV treatment of eggs): 80-100% | Appearance of tadpoles ([1]; eggs in 50 μM AMT 5 min, irradiated 5 min, 100 W UV 300-400 nm, then fertilized): typical haploid appearance | Outcome with shorter irradiation or lower concentrations ([1]; eggs irradiated for shorter periods or with lower concentrations of AMT): abnormal embryos | Haploid embryos expressing GFP ([1]; eggs of CMV-GFP(+) female treated with AMT and UV, fertilized with GFP(−) sperm, untreated 63%): virtually none | Chromosome Number (Mean ± SD) ([1]; karyotype analysis): 18 and 18.0 ± 0.0 | Concentration providing ideal enucleation conditions ([1]; irradiation of eggs for 2-5 minutes): 25 to 50 µM | Chromosome number of most surviving abnormal embryos ([1]; shorter irradiation or lower AMT concentrations, karyotype analysis): 32-34 | Embryo outcome when both sperm and egg were treated ([3]; both sperm and egg AMT+UV-treated): underwent several irregular cleavage divisions before dying during the blastula stage | Chromosome Number (Mean ± SD) ([3]; embryos from eggs fertilized with AMT + UV-treated sperm, karyotype analysis): 18 and 18.0 ± 0.0 | Appearance of tadpoles [3, 9]: typical haploid appearance | Pigmentation of tadpoles [3, 9]: all were albino | Effect on efficiency of fertilization ([3]; sperm treated with AMT and UV light): no effect | Efficiency of enucleation ([3]; sperm, AMT + UV): 95±3% | Psoralen concentration sufficient to completely destroy the nucleus ([3]; sperm, with UV irradiation): 1 µM | Embryo outcome, AMT without UV exposure ([3]; unless fertilization performed in a darkroom under a safelight): sometimes gave rise to abnormal embryos | Development of parthenogenetically activated eggs ([4]; 4-6 μM AMT, 30 seconds handheld 4W UV lamp): arrested development at the 1-2 cell stage | Development of eggs treated with AMT only ([4]; AMT without UV): formed complete blastocysts | Cleavage of fertilized zygotes ([5]; 20-40% with untreated sperm reached blastocyst): rarely cleaved even once | Fertilization of mouse eggs in vitro by treated sperm ([5]; two pronuclei): successfully fertilized mouse eggs in vitro | Comparison of colonies with those on gamma-irradiated MEFs ([6]; 5 μM AMT, long-wave UV 30 seconds): indistinguishable from those grown on gamma-irradiated MEFs | Appearance of hESC colonies on treated MEFs ([6]; 5 μM AMT, long-wave UV 30 seconds, H7/WA07 hESCs after 5 days): healthy-appearing hESC colonies with smooth rounded borders | Time after treatment within which plating maintains hESCs undifferentiated ([6]; AMT+UV-treated MEFs, noticeable decrease after 8 days): ≤ 6 days | Oct3/4 expression of hESCs ([6]; on AMT+UV-treated MEFs): normal amounts | Growth rate of CIN612 cells on psoralen-treated feeders [7]: the same as on mitomycin-C treated feeders | CIN612 colonies compared with mitomycin C-treated feeders ([7]; 3-7 days in culture): indistinguishable from those grown on mitomycin C-treated feeder cells

— patent publication US20120052544A1, “E[…] CELLS WITH PSORALENS” (priority 2010, published 2012)
